Assay results published in patent US6846821B2, “Tetrahydrothiopy ranphthalazinone derivatives as PDE4 inhibitors” (Altana Pharma, AG, priority 1999, dated 2005).

Experiments:
[1] = system: PDE4; experiment: Inhibition of PDE4 activity (method of Bauer and Schwabe, microtitre plates); format: biochemical; conditions: measured as −logIC50 (mol/l)
Procedure: The activity test was carried out according to the method of Bauer and Schwabe, which was adapted to microtitre plates (Naunyn-Schmiederberg's Arch. Pharmacol. 311, 193-198, 1980). In this test, the PDE reaction is carried out in the first step. In a second step, the resultant 5′-nucleotide is cleaved to the uncharged nucleoside by a snake venom 5′-nucleotidase from Crotalus Atrox. In the third step, the necleoside is separated from the remaining charged substrate on ion exchange columns. The columns are eluted directly into minivials using 2 ml of 30 mM ammonium formate (pH 6.0), to which a further 2 ml of scintillation fluid is added for counting.
The inhibitory values determined for the compounds according to the invention follow from the following table A which the numbers of the compounds correspond to the numbers of the examples.

Row | Compound | melting point [°C] | Inhibition of PDE4 activity, −logIC50 [1] [mol/l]
1 | COc1ccc(C2=NN(C3CCSCC3)C(=O)[C@H]3CC=CC[C@@H]23)c2c1OC(C)(C)C2 (relative stereo) [compound 1, (cis)-4-(2,3-Dihydro-2,2-dimethyl-7-methoxybenzofuran-4-yl)-2-(tetrahydrothiopyran-4-yl)-4a,5,8,8a-tetrahydro-2H-phthalazin-1-one] | 163 to 164 | 9.34
2 | COc1ccc(C2=NN(C3CCSCC3)C(=O)[C@H]3CC=CC[C@@H]23)cc1Cl (relative stereo) [compound 4, (cis)-4-(3-Chloro-4-methoxyphenyl)-2-(tetrahydrothiopyran-4-yl)-4a,5,8,8a-tetrahydro-2H-phthalazin-1-one] | 170 to 171 | –
3 | COc1ccc(C2=NN(C3CCS(=O)(=O)CC3)C(=O)C3CC=CCC23)cc1OC (stereo not drawn) [compound 2, (cis)-4-(3,4-Dimethoxyphenyl)-2-(1,1-dioxohexahydro-1l^6-thiopyran-4-yl)-4a,5,8,8a-tetrahydro-2H-phthalazin-1-one] | 196 to 198 | 8.45
4 | COc1ccc(C2=NN(C3CC[S+]([O-])CC3)C(=O)C3CC=CCC23)cc1OC (stereo not drawn) [compound 3, (cis)-4-(3,4-Dimethoxyphenyl)-2-(1-oxo-hexahydro-1l^4-thiopyran-4-yl)-4a,5,8,8a-tetrahydro-2H-phthalazin-1-one] | – | 8.51
5 | COc1ccc(C2=NN(C3CC[S+]([O-])CC3)C(=O)C3CC=CCC23)cc1Cl (stereo not drawn) [compound 5, (cis)-4-(3-Chloro4-methoxyphenyl)-2-(1-oxo-hexahydro-1l^4-thiopyran-4-yl)-4a,5,8,8a-tetrahydro-2H-phthalazin-1-one] | 197 to 199 | 8.20
6 | CCOc1ccc(C2=NN(C3CCS(=O)(=O)CC3)C(=O)C3CC=CCC23)cc1OCC (stereo not drawn) [compound 6, (cis)-4-(3,4-Diethoxyphenyl)-2-(1,1-dioxohexahydro-1l^6-thiopyran-4-yl)-4a,5,8,8a-tetrahydro-2H-phthalazin-1-one] | – | 8.02
7 | COc1ccc(C2=NN(C3CCS(=O)(=O)CC3)C(=O)C3CC=CCC23)c2c1OC(C)(C)C2 (stereo not drawn) [compound 7, (cis)-4-(2,3-Dihydro-2,2-dimethyl-7-methoxybenzofuran-4-yl)-2-(1,1-dioxohexahydro-1l^6-thiopyran4-yl)-4a,5,8,8a-tetrahydro-2H-phthalazin-1-one] | 261 to 263 | 9.00
8 | COc1ccc(C2=NN(C3CCS(=O)(=O)CC3)C(=O)C3CC=CCC23)cc1OC [compound 9, (4aS,8aR)-(cis)-4-(3,4-Dimethoxyphenyl)-2-(1,1-dioxohexahydro-1l^6-thiopyran-4-yl)-4a,5,8,8a-tetrahydro-2H-phthalazin-1-one] | 203 to 204 | 9.20
9 | COc1ccc(C2=NN(C3CCS(=O)(=O)CC3)C(=O)C3CC=CCC23)cc1OC1CCCC1 (stereo not drawn) [compound 10, (cis)-4-(3-Cyclopentyloxy-4-methoxyphenyl)-2-(1,1,-dioxohexahydro-1l^6-thiopyran-4-yl)-4a,5,8,8a-tetrahydro-2H-phthalazin-1-one] | – | 9.43
